{"source": "patent US20230372393A1", "about": "“METHODS FOR ALLOGENEIC HEMATOPOIETIC STEM CELL TRANSPLANTATION” (Orca Biosystems, Inc., priority 2020, published 2023)", "assay_type_in_all_cases": "in vivo, human", "key": {"[1]": {"system": "subjects with advanced hematologic malignancies undergoing myeloablative alloHCT", "assay": "Clinical study: acute GVHD (MAGIC criteria)", "method": "(§1) A clinical study was conducted in subjects with advanced hematologic malignancies undergoing myeloablative allogeneic hematopoietic cell transplantation (alloHCT).\n(§2) Personnel who identified subjects for the SOC cohort were blinded as to their clinical outcomes.\nAcute GVHD was staged and graded per MAGIC Standardization criteria.\nAcute GVHD: Acute GVHD (aGVHD) is a significant driver of morbidity and mortality associated with alloHCT, reducing the severity and incidence of aGVHD has the potential to greatly benefit graft recipients. Acute GVHD was staged and graded per Mount Sinai Acute GvHD International Consortium (MAGIC) Standardization criteria."}, "[2]": {"system": "subjects with advanced hematologic malignancies undergoing myeloablative alloHCT", "assay": "Clinical study: chronic GVHD (NIH criteria)", "conditions": "serum tacrolimus trough higher versus lower than 4 ng/ml, FIG. 9B", "method": "as §1, §2"}, "[3]": {"system": "subjects with advanced hematologic malignancies undergoing myeloablative alloHCT", "assay": "Clinical study: disease relapse and disease status", "conditions": "tacrolimus-only relative to sirolimus-only patients", "method": "as §1, §2"}, "[4]": {"system": "subjects with advanced hematologic malignancies undergoing myeloablative alloHCT", "assay": "Clinical study: GVHD and relapse-free survival, cGVHD-free survival", "conditions": "tacrolimus-only relative to sirolimus-only patients, FIG. 7G", "from_the_text": "GVHD and relapse-free survival is a composite readout that can refer to survival without relapse or Grade ≥3 acute or extensive chronic GVHD."}, "[5]": {"system": "subjects with advanced hematologic malignancies undergoing myeloablative alloHCT", "assay": "Clinical study: overall survival", "conditions": "tacrolimus-only relative to sirolimus-only patients, FIG. 7H", "from_the_text": "Overall survival: OS was defined as the time from the date of transplant to the date of death from any cause or, for surviving patients, to the date of last follow-up."}, "[6]": {"system": "CD3+ cells of donor origin", "assay": "Donor T cell chimerism versus tacrolimus trough level", "conditions": "lower average trough tacrolimus level through day +30, p=0.0011, FIG. 9H", "method": "Peripheral blood samples from subjects were also analyzed for chimerism as part of the follow-up procedures. The blood samples were processed to select for various cell populations using standard markers for each cell population. Blood was drawn from subjects that received the composition of the disclosure on day +28, day +56, day +100, day +180 and day +365 post-transplant, and the frequency of peripheral blood cells were quantified by flow cytometry (Markers used for analysis are described in Table 16).\nWithout wishing to be bound by a theory, it can be hypothesized that an improved chimerism due to higher tacrolimus levels may have led to the improved GVHD and survival outcomes in patients."}}}
{"smiles": "C=CC[C@@H]1/C=C(\\C)C[C@H](C)C[C@H](OC)[C@H]2O[C@@](O)(C(=O)C(=O)N3CCCC[C@H]3C(=O)O[C@H](/C(C)=C/[C@@H]3CC[C@@H](O)[C@H](OC)C3)[C@H](C)[C@@H](O)CC1=O)[C@H](C)C[C@@H]2OC", "note": "[tacrolimus]", "values": [{"measurement": "GVHD rates", "setting": "[1]; average serum tacrolimus trough level higher than 4 ng/ml for the first 30 days post-transplant, FIG. 8A", "value": "lower GVHD rates"}, {"measurement": "GVHD rates", "setting": "[1]; same conditioning regimen (Bu/Cy or TBI/BFT), trough higher versus lower than 4 ng/ml, FIGS. 9C-G", "value": "improvement in GVHD rates"}, {"measurement": "Acute GVHD rates", "setting": "[1]; serum tacrolimus trough higher versus lower than 4 ng/ml, FIG. 9A", "value": "significant improvement"}, {"measurement": "GVHD rates", "setting": "[1]; tacrolimus only versus sirolimus only prophylaxis, FIGS. 7A-C", "value": "higher GVHD rates"}, {"measurement": "chronic GVHD rates", "setting": "[2]", "value": "improvements"}, {"measurement": "survival (FIG. 7E)", "setting": "[3]", "value": "improved"}, {"measurement": "relapse rates", "setting": "[3]; FIG. 7F", "value": "improved"}, {"measurement": "GRFS rates", "setting": "[4]", "value": "improved"}, {"measurement": "overall survival rates", "setting": "[5]", "value": "improved"}, {"measurement": "engraftment of donor T cells (T cell chimerism)", "setting": "[6]", "value": "increased engraftment of donor T cells"}]}
